Results taken from publication PMC10408569, “Recruitment of hexahydroquinoline as anticancer scaffold targeting inhibition of wild and mutants EGFR (EGFR^WT, EGFR^T790M, and EGFR^L858R)” (Journal of Enzyme Inhibition and Medicinal Chemistry, 2023).

What was measured:
[1] = system: MOLT-4; assay: NCI-60 anticancer screening (SRB); assay type: cell-based; details: Homo sapiens; MOLT-4, leukemia; one dose 10 μM; read-out: Growth Inhibition Percentage (GI %)
[2] = system: HCC-2998; assay: NCI-60 anticancer screening (SRB); assay type: cell-based; details: Homo sapiens; HCC-2998, colon cancer; one dose 10 μM; read-out: Growth Inhibition Percentage (GI %)
[3] = system: UO-31; assay: NCI-60 anticancer screening (SRB); assay type: cell-based; details: Homo sapiens; UO-31, renal cancer; one dose 10 μM; read-out: Growth Inhibition Percentage (GI %)
[4] = system: RXF 393; assay: NCI-60 anticancer screening (SRB); assay type: cell-based; details: Homo sapiens; RXF 393, renal cancer; one dose 10 μM; read-out: Growth Inhibition Percentage (GI %)
[5] = system: COLO 205; assay: NCI-60 anticancer screening (SRB); assay type: cell-based; details: Homo sapiens; COLO 205, colon cancer; one dose 10 μM; read-out: Growth Inhibition Percentage (GI %)
[6] = system: M14; assay: NCI-60 anticancer screening (SRB); assay type: cell-based; details: Homo sapiens; M14, melanoma; one dose 10 μM; read-out: Growth Inhibition Percentage (GI %)
[7] = system: OVCAR-4; assay: NCI-60 anticancer screening (SRB); assay type: cell-based; details: Homo sapiens; OVCAR-4, ovarian cancer; one dose 10 μM; read-out: Growth Inhibition Percentage (GI %)
[8] = system: SK-MEL-5; assay: NCI-60 anticancer screening (SRB); assay type: cell-based; details: Homo sapiens; SK-MEL-5, melanoma; one dose 10 μM; read-out: Growth Inhibition Percentage (GI %)
[9] = system: NCI-H522; assay: NCI-60 anticancer screening (SRB); assay type: cell-based; details: Homo sapiens; NCI-H522, NSC lung cancer; one dose 10 μM; read-out: Growth Inhibition Percentage (GI %)
[10] = system: MCF7; assay: NCI-60 anticancer screening (SRB); assay type: cell-based; details: Homo sapiens; MCF7, breast cancer; one dose 10 μM; read-out: Growth Inhibition Percentage (GI %)
[11] = system: LOX IMVI; assay: NCI-60 anticancer screening (SRB); assay type: cell-based; details: Homo sapiens, melanoma, one dose 10 μM, read-out: Growth Inhibition Percentage (GI %)
[12] = system: NCI-H460; assay: NCI-60 anticancer screening (SRB); assay type: cell-based; details: Homo sapiens; NCI-H460, NSC lung cancer; one dose 10 μM; read-out: Growth Inhibition Percentage (GI %)
[13] = system: NCI/ADR-RES; assay: NCI-60 anticancer screening (SRB); assay type: cell-based; details: Homo sapiens, ovarian cancer, one dose 10 μM, read-out: Growth Inhibition Percentage (GI %)
[14] = system: TK-10; assay: NCI-60 anticancer screening (SRB); assay type: cell-based; details: Homo sapiens; TK-10, renal cancer; one dose 10 μM; read-out: Growth Inhibition Percentage (GI %)
[15] = system: HS 578T; assay: NCI-60 anticancer screening (SRB); assay type: cell-based; details: Homo sapiens; HS 578T, breast cancer; one dose 10 μM; read-out: Growth Inhibition Percentage (GI %)
[16] = system: CAKI-1; assay: NCI-60 anticancer screening (SRB); assay type: cell-based; details: Homo sapiens; CAKI-1, renal cancer; one dose 10 μM; read-out: Growth Inhibition Percentage (GI %)
[17] = system: SW-620; assay: NCI-60 anticancer screening (SRB); assay type: cell-based; details: Homo sapiens; SW-620, colon cancer; one dose 10 μM; read-out: Growth Inhibition Percentage (GI %)
[18] = system: HT29; assay: NCI-60 anticancer screening (SRB); assay type: cell-based; details: Homo sapiens, HT-29; HT29, colon cancer; one dose 10 μM; read-out: Growth Inhibition Percentage (GI %)
[19] = system: T-47D; assay: NCI-60 anticancer screening (SRB); assay type: cell-based; details: Homo sapiens, T47D, breast cancer, one dose 10 μM, read-out: Growth Inhibition Percentage (GI %)
[20] = system: HL-60(TB); assay: NCI-60 anticancer screening (SRB); assay type: cell-based; details: Homo sapiens, leukemia, one dose 10 μM, read-out: Growth Inhibition Percentage (GI %)
[21] = system: OVCAR-3; assay: NCI-60 anticancer screening (SRB); assay type: cell-based; details: Homo sapiens; OVCAR-3, ovarian cancer; one dose 10 μM; read-out: Growth Inhibition Percentage (GI %)
[22] = system: UACC-62; assay: NCI-60 anticancer screening (SRB); assay type: cell-based; details: Homo sapiens; UACC-62, melanoma; one dose 10 μM; read-out: Growth Inhibition Percentage (GI %)
[23] = system: SK-MEL-2; assay: NCI-60 anticancer screening (SRB); assay type: cell-based; details: Homo sapiens; SK-MEL-2, melanoma; one dose 10 μM; read-out: Growth Inhibition Percentage (GI %)
[24] = system: NCI 60 cancer cell lines; assay: NCI-60 anticancer screening (SRB), whole panel; assay type: cell-based, human; details: mean across the NCI-60 panel; one dose 10 μM
[25] = system: BT-549; assay: NCI-60 anticancer screening (SRB); assay type: cell-based; details: Homo sapiens; BT-549, breast cancer; one dose 10 μM; read-out: Growth Inhibition Percentage (GI %)
[26] = system: HOP-62; assay: NCI-60 anticancer screening (SRB); assay type: cell-based; details: Homo sapiens; HOP-62, NSC lung cancer; one dose 10 μM; read-out: Growth Inhibition Percentage (GI %)
[27] = system: NCI-H322M; assay: NCI-60 anticancer screening (SRB); assay type: cell-based; details: Homo sapiens, NSC lung cancer, one dose 10 μM, read-out: Growth Inhibition Percentage (GI %)
[28] = system: A498; assay: NCI-60 anticancer screening (SRB); assay type: cell-based; details: Homo sapiens; A498, renal cancer; one dose 10 μM; read-out: Growth Inhibition Percentage (GI %)
[29] = system: KM 12; assay: NCI-60 anticancer screening (SRB); assay type: cell-based; details: Homo sapiens, KM12; KM 12, colon cancer; one dose 10 μM; read-out: Growth Inhibition Percentage (GI %)
[30] = system: SN 12C; assay: NCI-60 anticancer screening (SRB); assay type: cell-based; details: Homo sapiens, SN12C; SN 12C, renal cancer; one dose 10 μM; read-out: Growth Inhibition Percentage (GI %)
[31] = system: 786-0; assay: NCI-60 anticancer screening (SRB); assay type: cell-based; details: Homo sapiens; 786-0, renal cancer; one dose 10 μM; read-out: Growth Inhibition Percentage (GI %)
[32] = system: MDA-MB-231; assay: NCI-60 anticancer screening (SRB); assay type: cell-based; details: Homo sapiens; MDA-MB-231, breast cancer; one dose 10 μM; read-out: Growth Inhibition Percentage (GI %)

| Structure (SMILES) | inhibition at 10 µM [1] | inhibition at 10 µM [2] | inhibition at 10 µM [3] | inhibition at 10 µM [4] | inhibition at 10 µM [5] | inhibition at 10 µM [6] | inhibition at 10 µM [7] | inhibition at 10 µM [8] | inhibition at 10 µM [9] | inhibition at 10 µM [10] | inhibition at 10 µM [11] | inhibition at 10 µM [12] | inhibition at 10 µM [13] | inhibition at 10 µM [14] | inhibition at 10 µM [15] | inhibition at 10 µM [16] | inhibition at 10 µM [17] | inhibition at 10 µM [18] | inhibition at 10 µM [19] | inhibition at 10 µM [20] | also measured |
| --- | --- | --- | --- | --- | --- | --- | --- | --- | --- | --- | --- | --- | --- | --- | --- | --- | --- | --- | --- | --- | --- |
| CCOC(=O)C1=C(N)N(c2ccccc2)C2=C(C(=O)CC(C)(C)C2)C1c1ccc(N2CCOCC2)cc1 (racemic) [8l, (±)-Ethyl 2-amino-7,7-dimethyl-4-[4-(morpholin-4-yl)phenyl]-5-oxo-1-phenyl-1,4,5,6,7,8-hexahydroquinoline-3-carboxylate] | < 10% | < 10% | < 10% | < 10% | < 10% | < 10% | < 10% | < 10% | 11% | < 10% | < 10% | < 10% | < 10% | < 10% | < 10% | 18% | < 10% | < 10% | < 10% | < 10% | inhibition at 10 µM [21]: < 10%; inhibition at 10 µM [22]: 17%; inhibition at 10 µM [23]: < 10%; GI % mean [24]: - ((-) = GI % mean less than 10); melting point: 193 to 195 °C; inhibition at 10 µM [25]: < 10%; inhibition at 10 µM [26]: < 10%; inhibition at 10 µM [27]: < 10%; inhibition at 10 µM [28]: < 10%; inhibition at 10 µM [29]: < 10%; inhibition at 10 µM [30]: < 10%; inhibition at 10 µM [31]: 16%; inhibition at 10 µM [32]: < 10% |
| CCOC(=O)C1=C(N)N(c2ccc(Cl)cc2)C2=C(C(=O)CC(C)(C)C2)C1c1ccccc1Cl (racemic) [6c, (±)-Ethyl 2-amino-4–(2-chlorophenyl)-1–(4-chlorophenyl)-7,7-dimethyl-5-oxo-1,4,5,6,7,8-hexahydroquinoline-3-carboxylate] | < 10% | 24% | 51% | < 10% | 62% | 28% | 32% | 66% | 63% | 58% | 18% | 58% | 24% | 43% | < 10% | 43% | 48% | 60% | 67% | 75% | inhibition at 10 µM [21]: 44%; inhibition at 10 µM [22]: 45%; inhibition at 10 µM [23]: 24%; GI % mean [24]: 34%; melting point: 179 to 181 °C; inhibition at 10 µM [25]: 40%; inhibition at 10 µM [26]: 19%; inhibition at 10 µM [27]: < 10%; inhibition at 10 µM [28]: < 10%; inhibition at 10 µM [29]: 44%; inhibition at 10 µM [30]: 31%; inhibition at 10 µM [31]: 15%; inhibition at 10 µM [32]: 24% |
| CCOC(=O)C1=C(N)N(c2ccc(C)cc2)C2=C(C(=O)CC(C)(C)C2)C1c1ccccn1 (racemic) [12b, (±)-Ethyl 2-amino-7,7-dimethyl-1–(4-methylphenyl)-5-oxo-1-phenyl-4-(pyrdin-2-yl)-1,4,5,6,7,8-hexahydroquinoline-3-carboxylate] | < 10% | < 10% | 23% | < 10% | < 10% | < 10% | < 10% | 13% | < 10% | 12% | < 10% | < 10% | < 10% | < 10% | < 10% | 16% | < 10% | < 10% | < 10% | < 10% | inhibition at 10 µM [21]: < 10%; inhibition at 10 µM [22]: 26%; inhibition at 10 µM [23]: < 10%; GI % mean [24]: - ((-) = GI % mean less than 10); melting point: 196 to 198 °C; inhibition at 10 µM [25]: 30%; inhibition at 10 µM [26]: < 10%; inhibition at 10 µM [27]: < 10%; inhibition at 10 µM [28]: < 10%; inhibition at 10 µM [29]: < 10%; inhibition at 10 µM [30]: < 10%; inhibition at 10 µM [31]: < 10%; inhibition at 10 µM [32]: 13% |
